Measured values taken from publication PMC6272548, “Synthesis and Antiplatelet Activity of Antithrombotic Thiourea Compounds: Biological and Structure-Activity Relationship Studies” (Molecules, 2015).
Read-outs that look alike come from different tables or passages of the source.

Experiments:
Salmonella typhimurium = test: Reverse mutagenesis to histidine prototrophy (Ames test), spot test; conditions: without metabolic activation; 10 µM, 100 µM and 500 µM
Description: This assay was performed as described by Maron and Ames, using the histidine Salmonella typhimurium auxotroph mutant strains TA97, TA98, TA100 and the […] TA102 (Table 5).

human platelets = test: Platelet aggregation of human citrated platelet-rich plasma induced by arachidonic acid (turbidimetric); assay type: cell-based; conditions: for inhibition at 100 µM: healthy human platelets, read-out: Inhibition of AA-induced platelet aggregation; for Antiplatelet activity (in words): AA-induced platelet aggregation
Description: The human blood samples were obtained from adult volunteers, who abstained from the use of drugs or other substances that could interfere with the experiment for at least 15 days prior. […] The platelet rich (PRP) and poor (PPP) plasma were prepared by differential centrifugation and platelet aggregation was monitored using the turbidimetric method described by Born and Cross with an aggregometer 4-Pack® (Helena Laboratories, Beaumount, TX, USA). Different concentrations of the synthetic derivatives and the vehicle (DMSO 1%) were pre-incubated for 2 min before addition of the agonists (500 μM arachidonic acid and 5 μg/mL collagen). The platelet aggregation tests were performed in triplicate and the data were statistically analyzed.

PGE2 production = test: Measurement of plasma PGE2 levels by EIA in platelet-rich plasma; assay type: cell-based; conditions: human platelet-rich plasma
Description: The stable direct metabolite of PGE2, 13,14-dihydro-15-keto-Prostaglandin E2, is a known marker of the COX-1 activity. By the measurement of total levels of this PGE2 metabolite in human platelet-rich plasma, we evaluated the feasibility of antiplatelet N,N'-disubstituted thioureas to inhibit COX-1 activity in healthy platelets (Table 2).
Plasma samples containing 100 μM of each thiourea with antiplatelet activity were used to determine the concentrations of […], an index of in vitro COX-1 activity. Briefly, ozagrel (3 μL, 100 μM) were added to stop TXS activity and the aggregation were triggered with 10 μL of arachidonic acid (500 μM) in PRP samples containing each active derivative (100 μM) under stir conditions. After five minutes the suspensions were mixed with indomethacin (3 μL, 10 mM) stop-solution. By sonication for 1 min, platelets were disrupted and purification step were performed according to the manufacturer’s instructions (Cayman Chemical Co.). Plasma levels of PGE2 were measured in duplicate by competitive immunoassay using commercially available kits for EIA (PGE2 EIA Kit, Cayman Chemical Co.) according to the manufacturer’s instructions. A threshold of 25.75 ng/mL was defined as control plasma levels of PGE2 after platelet disrupture.

TXB2 production = test: Measurement of plasma TXB2 levels by EIA in platelet-rich plasma; assay type: cell-based; conditions: for inhibition at 100 µM: Homo sapiens, Platelet; for Platelet Inhibition of TXB2 (%): 100 µM, human platelet-rich plasma
Description: Thromboxane B2 (TXB2), a stable TXA2 metabolite, is widely used as a prognostic risk marker of platelet activation in cardiovascular disease, which is closely related to COX-1 and Thromboxane Synthetase activity. Thus, the plasma levels of this metabolite were measured using an enzyme immunoassay (EIA) as described in the Experimental Section.
Plasma samples containing 100 μM of each thiourea with antiplatelet activity were used to determine the concentrations of thromboxane B2, an index of in vitro COX-1 activity. Briefly, 10 μL of arachidonic acid (500 μM) were added to platelet-rich plasma samples containing each active derivative (100 μM) under stir conditions. After five minutes the suspensions were mixed with 3 μL Indomethacin (10 mM) stop-solution. By sonication for 15 min, platelets were disrupted, and the resulting homogenates were centrifuged at 2000 g for 10 min to allow complete release of TXB2. Plasma levels of TXB2 were measured in duplicate by competitive immunoassay using commercially available kits from EIA Cayman (TXB2 EIA Kit, Cayman Chemical Co, Ann Arbor, MI, USA) according to the manufacturer’s instructions. A threshold of 25.75 ng/mL was defined as control plasma levels of TXB2 after platelet disrupture.

COX-1 = test system: COX-1; set-up: method as in PMID 22263894; conditions: read-out: IC50 of non-anionic COX-1 inhibitors; cited from earlier work
erythrocytes = test: Hemolysis assay (erythrocyte lysis); assay type: cell-based, human; conditions: 3 h incubation; derivatives and ASA at 100 μM, TRITON at 1%
Description: Healthy erythrocytes were washed three times with PBS (pH 7.4) by centrifugation and suspended in the same buffer. All derivatives were incubated with the erythrocyte suspension for 3 h at 37 °C. The release of hemoglobin was determined by monitoring the optical density of the supernatant at 540 nm. The experiments were performed in triplicate and complete hemolysis (positive control) was determined using 1% Triton X-100. Hemolysis less than 10% indicated good hemocompatibility and non-toxicity of the molecules tested.

[1] = Homo sapiens, Platelet, read-out: IC50, concentration that caused 50% inhibition of platelet aggregation, arachidonic acid-induced (500 μM), human platelet-rich plasma
[2] = read-out: IC50, concentration that caused 50% inhibition of platelet aggregation, arachidonic acid-induced (500 μM), human platelet-rich plasma

Compound | Ames Test S. typhimurium TA97 (Salmonella typhimurium) | Ames Test S. typhimurium TA98 (Salmonella typhimurium) | Ames Test S. typhimurium TA100 (Salmonella typhimurium) | Ames Test S. typhimurium TA102 (Salmonella typhimurium) | IC50 (human platelets; [1]) | melting point | inhibition at 100 µM (PGE2 production) | inhibition at 100 µM (human platelets; Platelet) | inhibition at 100 µM (TXB2 production) | Antiplatelet activity (in words) (human platelets) | IC50 (human platelets; [2]) | Platelet Inhibition of TXB2 (%) (TXB2 production) | IC50 (COX-1) | Hemolysis (erythrocytes)
CNC(=S)Nc1ccccc1 [3a, N-Methyl-N'-phenylthiourea] | - | - | - | - | 308 ± 10.4 µM |  |  |  |  |  |  |  |  | 
S=C(Nc1ccccc1)NC1CCCCC1 [3b, N-Cyclohexyl-N'-phenylthiourea] | - | - | - | - | 153 ± 4.5 µM | 149 to 151 °C |  |  |  |  |  |  |  | 
OCCNC(=S)Nc1ccccc1 [3c, N-(2-Hydroxyethyl)-N'-phenylthiourea] | - | - | - | - | 170 ± 17.3 µM | 139 to 141 °C |  |  |  |  |  |  |  | 
CCN(CC)C(=S)Nc1ccccc1 [3d, N-N-Diethyl-N'-phenylthiourea] | - | - | - | - | 29.1 µM |  | 25.6 ± 5.9% | 96 to 98% | 74.2 ± 10.2% |  |  |  |  | 
COc1cc(NC(=S)Nc2ccccc2)cc(OC)c1OC [3e, N-Phenyl-N'-(3,4,5-trimethoxyphenyl)thiourea] | - | - | - | - | 251 ± 3.5 µM | 164 to 166 °C |  |  |  | lack antiplatelet activity |  |  |  | 
S=C(Nc1ccccc1)Nc1ccc2c(c1)OCO2 [3f, N-3,4-Methylenedioxyphenyl-N'-phenylthiourea] | - | - | - | - | 322 ± 8.9 µM | 140 to 142 °C |  |  |  | lack antiplatelet activity |  |  |  | 
S=C(Nc1ccccc1)Nc1cccc2ccccc12 [3g, N-α-Naphthyl-N'-phenylthiourea] | - | - | - | - |  |  |  |  |  |  | 142 ± 9 µM |  |  | 
CC(C)NC(=S)NCc1ccccc1 [3h, N-Benzyl-N'-isopropylthiourea] | - | - | - | - | 214 ± 10.2 µM | 121 to 123 °C |  |  |  |  |  |  |  | 
CCN(CC)C(=S)NCc1ccccc1 [3i, N-Benzyl-N',N'-diethylthiourea] | - | - | - | - |  |  | 21.1 ± 5% | 96 to 98% | 74.7 ± 5.5% |  | 86.2 µM |  |  | 
S=C(NCc1ccccc1)Nc1ccc2c(c1)OCO2 [3j, N-Benzyl-N'-(3,4-methylenedioxyphenyl)thiourea] | - | - | - | - | 155 ± 3.6 µM | 114 to 116 °C |  |  |  |  |  |  |  | 
CC(C)NC(=S)NCCc1ccccc1 [3k, N-Isopropyl-N'-(2-phenethyl)thiourea] | - | - | - | - | 188 ± 10.7 µM | 126 to 128 °C |  |  |  |  |  |  |  | 
CCCCNC(=S)NCCc1ccccc1 [3l, N-Butyl-N'-(2-phenethyl)thiourea] | - | - | - | - | 153 ± 15 µM | 61 to 63 °C |  |  |  |  |  |  |  | 
CCN(CC)C(S)=NCCc1ccccc1 [3m, N,N-diethyl-N'-(2-phenethyl)thiourea] | - | - | - | - | 34.5 µM | 72 to 74 °C | 28.2 ± 5.9% | 96 to 98% | 91% |  | 34.5 ± 0.9 µM | 91.2 ± 0.0% |  | 
S=C(NCCc1ccccc1)NC1CCCCC1 [3n, N-Cyclohexyl-N'-(2-phenethyl)thiourea] | - | - | - | - | 277 ± 42.9 µM | 109 to 111 °C |  |  |  |  |  |  |  | 
S=C(NCCc1ccccc1)Nc1cccc2ccccc12 [3o, N-(α-Naphthyl)-N'-(2-phenethyl)thiourea] | - | - | - | - | 157 ± 19.9 µM | 155 to 157 °C |  |  |  |  |  |  |  | 
S=C(NCCc1ccccc1)Nc1ccc2c(c1)OCO2 [3p, N-(3,4-Methylenedioxyphenyl)-N'-(2-phenethyl)thiourea] | - | - | - | - | 84.6 µM | 126 to 128 °C | 7.9 ± 7.9% | 96 to 98% | 88% |  | 84.5 µM | 88.1 ± 5.5% |  | 
COc1cc(NC(=S)Nc2ccc3c(c2)OCO3)cc(OC)c1OC [3q, N-(3,4-Methylenedioxyphenyl)-N'-(3,4,5-trimethoxyphenyl)thiourea] | - | - | - | - | 290 ± 21.9 µM | 142 to 144 °C |  |  |  | lack antiplatelet activity |  |  |  | 
COc1ccc2c(c1)c(CC(=O)O)c(C)n2C(=O)c1ccc(Cl)cc1 [Indomethacin, reference compound] |  |  |  |  |  |  | 28 ± 1.6% |  | 99.8% |  |  |  |  | 
O=C(O)/C=C/c1ccc(Cn2ccnc2)cc1 [Ozagrel, reference compound] |  |  |  |  |  |  |  |  | 98 ± 2.8% |  |  |  |  | 
Nc1ccc(NC(=O)c2ccc(C(F)(F)F)cc2)nc1 [TFAP] |  |  |  |  |  |  |  |  |  |  |  |  | 0.8 µM | 
Triton X-100 |  |  |  |  |  |  |  |  |  |  |  |  |  | 100%
